Laboratory results from publication PMC13489962, “Small-molecule modulation of β-arrestins” (Nature, 2026).
Several values for one entry are separate records, joined by “and”; a condition that tells them apart may be missing. Identical values can stand only once.

Columns and labels:
βARR1 = molecular target: T1, βARR1 (Rattus norvegicus, UniProt P29066); assay: ITC binding to βARR1; details: for Kd: one-site model
T1 construct: βARR1 or βARR2 construct, with their C terminus truncated (at amino acid 393 or 394, respectively); GST (pGEX4T1) (N, cleaved yes); made in house; host or cells: E. coli BL21 (DE3) pLysS
Procedure: The expression and purification of β-arrestins have been described previously[44],[62]–[64]. In brief, E. coli BL21 (DE3) pLysS cells (New England Biolabs: C2527I) carrying pGEX4T1-Rattus norvegicus βARR1 or βARR2 construct, with their C terminus truncated (at amino acid 393 or 394, respectively), were cultured in Terrific Broth (Teknova) medium at 37 °C. After OD600 reached 0.6–0.8, the cells were induced with 0.1 mM isopropyl-β-D-thiogalactopyranoside (IPTG) at 18 °C overnight. Bacteria were collected by centrifugation (4,000 rpm), and cell pellets were resuspended in lysis buffer (20 mM HEPES, pH 8, 150 mM NaCl, 10% glycerol, 1 mM EDTA, 0.2 mM dithiothreitol (DTT), 1 mM phenylmethylsulfonyl fluoride, and 1 mM benzamidine) at 4 °C for 1 h. Cell suspensions were sonicated, centrifuged (14,000 rpm, 30 min, 4 °C), and the supernatant was loaded onto pre-equilibrated glutathione–agarose resin (GoldBio). After 3 h of binding at 4 °C, the beads were washed, and thrombin was added for overnight cleavage. The proteins were further purified by anion exchange chromatography followed by size-exclusion chromatography using a Superdex 200 Increase 10/300 GL column on an ÄKTA FPLC system (GE Healthcare). Eluted fractions were analysed by SDS–PAGE, pooled, concentrated using 30 kDa MWCO Amicon Ultra-15 Centrifugal Filter devices, flash-frozen in liquid nitrogen, and stored in aliquots at −80 °C. The same rat βARR1 constructs with mutations (L129A, L129S, L129G, P131A, P133A, E134A, D135A, K138A, C140A, Y249A, C251A, E283A, K284A and R285A) were generated and purified in a similar manner. Recombinant Gα subunits (Gαs, Gαq and Gαi) were purified as GST fusion proteins using glutathione–agarose affinity chromatography as previously described. The heterotrimeric Gs protein complex, composed of Gαs, Gβ1 and Gγ2 subunits, was expressed in Sf9 cells using the baculovirus expression system and purified as previously described. M2R expression, purification and reconstitution into high-density lipoprotein (HDL) particles were performed as previously described. ERK2, SRC, p38α and JNK3 kinases were expressed and purified using previously established protocols[6],[16]. Protein concentrations for each protein were determined by ultraviolet absorption at 280 nm and extinction coefficients estimated using the ExPASy ProtParam tool[67].
ITC measurements were performed on a MicroCal iTC200 system at 25 °C. Prior to ITC experiments, all proteins (βARR1, βARR2 or βARR1 mutants) were extensively dialysed against 20 mM HEPES (pH 7.4), 100 mM NaCl, and 3 μM TCEP. Protein concentrations were determined by spectrophotometry at 280 nm, using extinction coefficients calculated from each protein sequence via the ProtParam program. The dialysis buffer was used to dilute DMSO stock solutions of β-arrestin small-molecule modulators to their final concentrations for measurements. For each ITC experiment, β-arrestin modulators (Cmpd-5 at 350 μM, Cmpd-46 at 450 μM, and Cmpd-64 at 450 μM) were loaded into the syringe and titrated into the calorimetric cell containing βARR1, βARR1 mutants or βARR2 (at about 30–40 μM, depending on the protein and experiment). Additional ITC experiments were also performed using purified GST-fused Gα subunits (Gαs, Gαq and Gαi; about 30 μM) and Gαiβγ heterotrimer (about 30 μM). Gα subunits were prepared in the same buffer (20 mM HEPES, pH 7.4, 100 mM NaCl, 3 μM TCEP), whereas the Gαiβγ heterotrimer was maintained in buffer supplemented with 0.05% DDM and 10 μM GDP, with matched DMSO carrier conditions. Modulators (300 μM) or corresponding DMSO controls were loaded and titrated as described above. The reference cell was filled with distilled water. In all experiments, the titration sequence typically consisted of an initial 0.4 μl injection, followed by 19 injections of 2 μl each, with a 180-s interval between injections to allow thermal power to return to baseline. […]

Gαi = assay: ITC binding to purified Gαi
Procedure: ITC measurements were performed on a MicroCal iTC200 system at 25 °C. Prior to ITC experiments, all proteins (βARR1, βARR2 or βARR1 mutants) were extensively dialysed against 20 mM HEPES (pH 7.4), 100 mM NaCl, and 3 μM TCEP. Protein concentrations were determined by spectrophotometry at 280 nm, using extinction coefficients calculated from each protein sequence via the ProtParam program. The dialysis buffer was used to dilute DMSO stock solutions of β-arrestin small-molecule modulators to their final concentrations for measurements. For each ITC experiment, β-arrestin modulators (Cmpd-5 at 350 μM, Cmpd-46 at 450 μM, and Cmpd-64 at 450 μM) were loaded into the syringe and titrated into the calorimetric cell containing βARR1, βARR1 mutants or βARR2 (at about 30–40 μM, depending on the protein and experiment). Additional ITC experiments were also performed using purified GST-fused Gα subunits (Gαs, Gαq and Gαi; about 30 μM) and Gαiβγ heterotrimer (about 30 μM). Gα subunits were prepared in the same buffer (20 mM HEPES, pH 7.4, 100 mM NaCl, 3 μM TCEP), whereas the Gαiβγ heterotrimer was maintained in buffer supplemented with 0.05% DDM and 10 μM GDP, with matched DMSO carrier conditions. Modulators (300 μM) or corresponding DMSO controls were loaded and titrated as described above. The reference cell was filled with distilled water. In all experiments, the titration sequence typically consisted of an initial 0.4 μl injection, followed by 19 injections of 2 μl each, with a 180-s interval between injections to allow thermal power to return to baseline. During the experiment, the reference power was set to 7 μcal s^−1, and the sample cell was stirred continuously at 750 rpm. […] Data were analysed and fit using a one-site independent binding model to obtain the equilibrium dissociation constant, Kd (from the association constant Ka = 1/Kd), stoichiometry (N), and thermodynamic parameters including enthalpy (ΔH) and entropy (−TΔS) of binding. Data were analysed using MicroCal PEAQ-ITC analysis software (v1.1.0.1262).

T1 sequence (P29066 1-393): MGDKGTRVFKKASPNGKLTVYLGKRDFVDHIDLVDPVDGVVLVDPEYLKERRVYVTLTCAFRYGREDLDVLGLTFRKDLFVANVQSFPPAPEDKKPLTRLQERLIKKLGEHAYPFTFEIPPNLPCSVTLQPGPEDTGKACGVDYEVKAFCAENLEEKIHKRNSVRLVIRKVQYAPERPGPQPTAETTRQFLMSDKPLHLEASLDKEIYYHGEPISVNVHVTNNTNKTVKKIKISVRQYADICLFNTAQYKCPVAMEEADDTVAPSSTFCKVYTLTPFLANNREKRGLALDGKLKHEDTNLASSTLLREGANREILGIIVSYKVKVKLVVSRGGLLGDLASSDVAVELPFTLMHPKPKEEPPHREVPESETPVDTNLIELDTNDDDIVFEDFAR

SMILES	stoichiometry N, βARR1 (βARR1)	ΔH, βARR1 wild type (βARR1; 25 °C)	Kd (βARR1; 25 °C)	binding to Gαi (Gαi)
C=C1C(=O)[C@]23[C@H](O)[C@H]1CC[C@H]2[C@@]12CO[C@]3(O)[C@@H](O)[C@@H]1C(C)(C)CC[C@@H]2O [Cmpd-5, (1S,4aR,5S,6S,6aR,9S,11aS,11bS,14R)-1,5,6,14-tetrahydroxy−4,4-dimethyl-8-methylenedecahydro-1H-6,11b-(epoxymethano)-6a,9-methanocyclohepta[a]naphthalen-7(8H)-one]	1	-13.4 kcal/mol	~0.4 µM and 0.362 µM	no measurable affinity
C=C1C(=O)C2=CC1CCC(=O)C1(C)CCC(OCC)C(C)(C)C1CC2O (stereo not shown) [Cmpd-46, (Z)-3-ethoxy-6-hydroxy-4,4,13a-trimethyl-9-methylene-1,2,3,4,4a,5,6,9,10,11,12,13a-dodecahydro-7,10-(metheno)benzo[11]annulene-8,13-dione]	1.2		1.34 ± 0.74 µM	no measurable affinity
C=C1C(=O)OC2CC3(C)OC3CCC(C)=CC(OC(C)=O)C12 (stereo not shown) [Cmpd-64, (Z)-4,10a-dimethyl-7-methylene-8-oxo-1a,2,3,6,6a,7,8,9a,10,10a decahydrooxireno[2’,3’:8,9]cyclodeca[1,2-b]furan-6-yl acetate]	0.73		1.42 ± 0.2 µM	very weak binding
